# Compound: CCOC1=CC=CC=C1N=NC2=C(NN(C2=O)C3=NC(=CS3)C4=CC=CC=C4)C [BAM7] + Cc1cc(Nc2cc(N3CCN(C)CC3)nc(Sc3ccc(NC(=O)C4CC4)cc3)n2)n[nH]1 [Tozasertib] (partner 0.1 µM)
# Assay: relative viability (nuclei count vs DMSO), 5 days (fraction); higher = more cells survive
# Details: first compound 0.5 µM
# Summary of the method: (§1)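 Relative viability equals treated-well nuclei counts divided by vehicle-well nuclei counts. Counts came from 4× images of lung cancer cell lines grown in 1536-well plates for 5 days after pin-tool dosing on the day after seeding. Dosing used one drug alone or a fixed anchor-drug dose plus five library-drug doses (not always all listed) in √10 steps, and values are medians of duplicate plates.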
row,Cell Line,relative viability
1,HCC-78,0.428
2,NCI-H322M,0.481
3,LCLC-97TM1,0.207
4,A-427,0.202
5,NCI-H441,0.643
6,NCI-H1734,0.289
7,NCI-H460,0.4
8,NCI-H2347,0.75
9,NCI-H1395,0.701
10,201T,0.737
11,NCI-H1915,0.443
12,HCC-827,0.405
13,LXF-289,0.206
14,NCI-H23,0.245
15,NCI-H647,0.309
16,CAL-12T,0.311
17,NCI-H1651,0.674

row,Cell Line,relative viability
1,EPLC-272H,0.252
2,NCI-H1355,0.515
3,NCI-H3122,0.44
4,NCI-H1437,0.482
5,NCI-H1755,0.602
6,HCC-15,0.471
7,NCI-H1793,0.274
8,PC-14,0.58
9,EKVX,0.424
10,LC-2-ad,0.501
11,NCI-H1944,0.25
12,NCI-H1975,0.41
13,RERF-LC-KJ,0.413
14,ABC-1,0.164
15,NCI-H358,0.136
16,NCI-H650,0.803
17,PC-3 [JPC-3],0.776

# Same assay, conditions: first compound 5 µM
row,Cell Line,relative viability
1,HCC-78,0.371
2,NCI-H322M,0.474
3,LCLC-97TM1,0.442
4,A-427,0.199
5,NCI-H441,0.562
6,NCI-H1734,0.253
7,NCI-H460,0.0975
8,NCI-H2347,0.426
9,NCI-H1395,1.01
10,201T,0.805
11,NCI-H1915,0.4
12,HCC-827,0.433
13,LXF-289,0.215
14,NCI-H23,0.367
15,NCI-H647,0.333
16,CAL-12T,0.257
17,NCI-H1651,0.758

row,Cell Line,relative viability
1,NCI-H1355,0.461
2,NCI-H3122,0.387
3,NCI-H1437,0.489
4,NCI-H1755,0.615
5,HCC-15,0.493
6,NCI-H1793,0.269
7,PC-14,0.595
8,EKVX,0.36
9,LC-2-ad,0.424
10,NCI-H1944,0.253
11,NCI-H1975,0.512
12,RERF-LC-KJ,0.264
13,ABC-1,0.162
14,NCI-H358,0.0963
15,NCI-H650,0.861
16,PC-3 [JPC-3],0.7

# Same assay, conditions: first compound 15.81 µM
row,Cell Line,relative viability
1,HCC-78,0.446
2,NCI-H322M,0.523
3,LCLC-97TM1,0.261
4,A-427,0.216
5,NCI-H441,0.526
6,NCI-H1734,0.246
7,NCI-H460,0.123
8,NCI-H1395,0.806
9,201T,0.673
10,NCI-H1915,0.405
11,HCC-827,0.395
12,LXF-289,0.183
13,NCI-H23,0.288
14,NCI-H647,0.294
15,CAL-12T,0.236
16,NCI-H1651,0.637
17,EPLC-272H,0.275

row,Cell Line,relative viability
1,NCI-H1355,0.361
2,NCI-H3122,0.351
3,NCI-H1437,0.417
4,NCI-H1755,0.55
5,HCC-15,0.346
6,NCI-H1793,0.223
7,PC-14,0.591
8,EKVX,0.183
9,LC-2-ad,0.466
10,NCI-H1944,0.257
11,NCI-H1975,0.465
12,RERF-LC-KJ,0.231
13,ABC-1,0.183
14,NCI-H358,0.0944
15,NCI-H650,0.702
16,PC-3 [JPC-3],0.72

# Same assay, conditions: first compound 50 µM
row,Cell Line,relative viability
1,HCC-78,0.393
2,NCI-H322M,0.467
3,LCLC-97TM1,0.172
4,A-427,0.202
5,NCI-H441,0.627
6,NCI-H1734,0.248
7,NCI-H460,0.131
8,NCI-H2347,0.525
9,NCI-H1395,0.771
10,201T,0.726
11,NCI-H1915,0.399
12,HCC-827,0.388
13,LXF-289,0.19
14,NCI-H23,0.256
15,NCI-H647,0.247
16,CAL-12T,0.24
17,NCI-H1651,0.638

row,Cell Line,relative viability
1,EPLC-272H,0.334
2,NCI-H1355,0.459
3,NCI-H3122,0.324
4,NCI-H1437,0.425
5,NCI-H1755,0.644
6,HCC-15,0.284
7,NCI-H1793,0.262
8,PC-14,0.557
9,EKVX,0.333
10,LC-2-ad,0.451
11,NCI-H1944,0.257
12,NCI-H1975,0.512
13,RERF-LC-KJ,0.249
14,ABC-1,0.227
15,NCI-H358,0.108
16,NCI-H650,0.796
17,PC-3 [JPC-3],0.735

# Compound: CCOC1=CC=CC=C1N=NC2=C(NN(C2=O)C3=NC(=CS3)C4=CC=CC=C4)C [BAM7] + COc1cc2c(Oc3ccc(NC(=O)C4(C(=O)Nc5ccc(F)cc5)CC4)cc3F)ccnc2cc1OCCCN1CCOCC1 [Foretinib] (partner 0.25 µM)
# Assay: as above
# Details: first compound 0.5 µM
# Summary of the method: as §1
row,Cell Line,relative viability
1,HCC-78,0.566
2,NCI-H322M,0.939
3,LCLC-97TM1,0.975
4,A-427,1.11
5,NCI-H441,1.09
6,NCI-H1734,0.849
7,NCI-H460,0.926
8,NCI-H2347,1.23
9,NCI-H1395,1.01
10,201T,0.789
11,NCI-H1915,1.21
12,HCC-827,0.967
13,LXF-289,1.04
14,NCI-H23,1.05
15,NCI-H647,1.4
16,CAL-12T,1.22
17,NCI-H1651,0.893

row,Cell Line,relative viability
1,EPLC-272H,0.653
2,NCI-H1355,0.936
3,NCI-H3122,0.838
4,NCI-H1437,1.31
5,NCI-H1755,0.951
6,HCC-15,1
7,NCI-H1793,0.679
8,PC-14,0.981
9,EKVX,0.792
10,LC-2-ad,0.908
11,NCI-H1944,0.79
12,NCI-H1975,0.77
13,RERF-LC-KJ,0.821
14,ABC-1,1.05
15,NCI-H358,0.834
16,NCI-H650,0.988
17,PC-3 [JPC-3],0.923

# Same assay, conditions: first compound 5 µM
row,Cell Line,relative viability
1,HCC-78,0.516
2,NCI-H322M,0.95
3,LCLC-97TM1,0.963
4,A-427,1.07
5,NCI-H441,1.13
6,NCI-H1734,1
7,NCI-H460,0.982
8,NCI-H2347,0.918
9,NCI-H1395,1.09
10,201T,0.948
11,NCI-H1915,1.15
12,HCC-827,1.05
13,LXF-289,0.968
14,NCI-H23,1.03
15,NCI-H647,1.2
16,CAL-12T,1.18
17,NCI-H1651,0.837

row,Cell Line,relative viability
1,NCI-H1355,0.907
2,NCI-H3122,0.856
3,NCI-H1437,1.2
4,NCI-H1755,0.941
5,HCC-15,1.04
6,NCI-H1793,0.619
7,PC-14,1.03
8,EKVX,0.79
9,LC-2-ad,0.911
10,NCI-H1944,0.905
11,NCI-H1975,0.801
12,RERF-LC-KJ,0.832
13,ABC-1,1.17
14,NCI-H358,0.84
15,NCI-H650,1.14
16,PC-3 [JPC-3],0.948

# Same assay, conditions: first compound 15.81 µM
row,Cell Line,relative viability
1,HCC-78,0.564
2,NCI-H322M,0.862
3,LCLC-97TM1,0.935
4,A-427,1.05
5,NCI-H441,0.767
6,NCI-H1734,0.779
7,NCI-H460,0.878
8,NCI-H2347,0.969
9,NCI-H1395,1.01
10,201T,0.832
11,NCI-H1915,1.02
12,HCC-827,1.03
13,LXF-289,0.986
14,NCI-H23,0.928
15,NCI-H647,1.16
16,CAL-12T,1.09
17,NCI-H1651,0.686

row,Cell Line,relative viability
1,EPLC-272H,0.632
2,NCI-H1355,0.795
3,NCI-H3122,0.916
4,NCI-H1437,1.21
5,NCI-H1755,0.961
6,HCC-15,0.982
7,NCI-H1793,0.727
8,PC-14,0.888
9,EKVX,0.541
10,LC-2-ad,0.829
11,NCI-H1944,0.767
12,NCI-H1975,0.718
13,RERF-LC-KJ,0.81
14,ABC-1,0.95
15,NCI-H358,0.642
16,NCI-H650,1
17,PC-3 [JPC-3],0.819

# Same assay, conditions: first compound 50 µM
row,Cell Line,relative viability
1,HCC-78,0.58
2,NCI-H322M,0.932
3,LCLC-97TM1,0.883
4,A-427,1.05
5,NCI-H441,1.14
6,NCI-H1734,0.825
7,NCI-H460,0.969
8,NCI-H2347,0.981
9,NCI-H1395,1.05
10,201T,0.823
11,NCI-H1915,1.02
12,HCC-827,0.998
13,LXF-289,0.961
14,NCI-H23,1.1
15,NCI-H647,1.21
16,CAL-12T,1.23
17,NCI-H1651,0.829

row,Cell Line,relative viability
1,EPLC-272H,0.811
2,NCI-H1355,0.791
3,NCI-H3122,0.866
4,NCI-H1437,1.2
5,NCI-H1755,0.95
6,HCC-15,1
7,NCI-H1793,0.928
8,PC-14,1.01
9,EKVX,0.987
10,LC-2-ad,0.908
11,NCI-H1944,0.888
12,NCI-H1975,0.829
13,RERF-LC-KJ,0.833
14,ABC-1,1.19
15,NCI-H358,0.634
16,NCI-H650,0.992
17,PC-3 [JPC-3],0.915

# Compound: CCn1c(-c2nonc2N)nc2c(C#CC(C)(C)O)ncc(OC[C@H]3CCCNC3)c21 + Cc1nc(NC(=O)N2CCC[C@H]2C(N)=O)sc1-c1ccnc(C(C)(C)C(F)(F)F)c1 [Alpelisib] (partner 2 µM)
# Assay: as above
# Details: first compound 0.01 µM
# Summary of the method: as §1
row,Cell Line,relative viability
1,HCC-78,0.306
2,NCI-H322M,0.868
3,A-427,0.998
4,NCI-H441,0.653
5,NCI-H1734,0.652
6,NCI-H460,0.439
7,NCI-H2347,1.09
8,NCI-H1395,0.986
9,201T,0.989
10,NCI-H1915,1.06
11,HCC-827,1.01
12,LXF-289,1.04
13,NCI-H23,0.605
14,NCI-H647,1.2
15,CAL-12T,1.03
16,NCI-H1651,1.01
17,EPLC-272H,0.962
18,NCI-H1355,0.863

# — the supplement of paper PMC10307832
